# Counter-ions that a name gives are not always drawn. Like-named read-outs stand apart in the source and are kept apart here.
# How the values were obtained:
# [1] = test system: convulsions induced by electric shocks in rats; assay: Protection against convulsions induced by electric shocks in rats; type: in vivo, rat (male Sprague Dawley); conditions: sc, 0.5 h; rat; subcutaneous; shock 30 minutes after injection; protection in 50% of the animals
# Description: (§1) Moreover, "in vivo" tests enabled the capacity of the compounds of the invention (I) to inhibit convulsions induced by electric shocks in rats, and also their capacity to inhibit gastroduodenal ulcers caused by administration of cysteamine, to be detected.
# a) Convulsions in rats: electric shock
# The psychotropic properties of the compounds (I) were determined by the protection against convulsions induced by electric shocks in rats.
# The emission of an electric shock causes a convulsive state in the animal, characterized by the convulsive extension of front and rear legs.
# In practice, the study is carried out on groups of 10 male Sprague Dawley rats weighing approximately 100 grams, to which the product under study is administered subcutaneously in aqueous solution on the basis of 0.5 ml per 100 grams of the animal's body weight.
# An electric shock is then produced 30 minutes after the injection by means of a UGO BASILE ECT UNIT 7801 electric shock apparatus (APELEX): frequency 50 cps/sec, pulse width 0.6 ms, shock duration 1 sec, intensity 90 mA. […] Each animal then receives a score, which is equal to 1 for the presence of tonic convulsions and zero for the absence of tonic convulsions. […] The results are compared statistically between the control group and the treated group by the test of Fisher R. A. and Yates F. (Biometrika, 1948, 35-149) and the ED50 (dose of the test compound giving rise to protection in 50% of the animals) is calculated by the method of Litchfield J. T. and Wilcoxon F. (J. Pharmacol. Exp. Therap., 1949, 96-99).
# [2] = biological target: T1, sigma receptors (Rattus norvegicus, UniProt Q9R0C9); assay: Sigma binding, SKF 10,047/rat brain membranes (Table 1.B); conditions: rat brain membranes
# T1 construct: (SKF 10,047/rat brain membranes); from tissue; host or cells: rat brain membranes
# Description: (§2) Tests of binding to phencyclidine and dopamine D2 receptors were carried out to study the possible undesirable interactions of the compounds of the invention with these receptors. The ligands used are [^3 H]-TCP for phencyclidine and [^3 H]spiroperidol for dopamine.
# (§3) The binding experiments are carried out with the sigma ligands (+)-[^3 H]-SKF10,047 and [^3 H]-TCP according to the technique described by Largent B. L. et al. in J. Pharmacol. Exp. Ther. 238, 1986, p 739-748, the principle of which is to place in competition the respective affinities of the product under study and that of a radioactive characteristic ligand for sigma receptors.
# (§4) The technique consists in incubating solutions of suitable concentrations of the test products with standard samples of membranes loaded with the labeled ligand, and then in determining the radioactivity of the solution after filtration.
# (§5) The results are processed so as to calculate the IC50 of the product under study, which represents the nanomolar concentration of solution capable of inhibiting 50% of the binding of the tritiated ligand to the sigma receptors of the membranes used.
# (§6) The SKF 10,047 binding tests are performed with guinea pig or rat brain membranes, those with DTG and TCP are performed with rat brain membranes; the D2 binding tests are performed with guinea pig brain membranes.
# [3] = biological target: phencyclidine (PCP) receptors; assay: PCP receptor binding test with [3H]-TCP (Table 1.A); conditions: guinea pig
# Description: as §2, §3, §4, §5, §6
# [4] = biological target: T2, sigma receptors (Cavia porcellus, UniProt Q60492); assay: Sigma binding test with (+)-[3H]-SKF10,047, guinea pig brain membranes (Table 1.A); conditions: read-out: SKF10047 guinea pig IC50
# T2 construct: from tissue; host or cells: guinea pig brain membranes
# Description: as §2, §3, §4, §5, §6
# [5] = biological target: sigma receptors; assay: Sigma binding test with [3H]-DTG (Table 1.A); conditions: guinea pig
# Description: as §2
# (§7) Binding with the ligand [^3 H]-DTG is carried out according to the technique of Weber, E. M. et al., 1986, Proc. Natl. Acad. Sci., 83:8784-8788, and binding with the ligand [^3 H]spiroperidol is carried out according to the technique of Fields, J. Z., Reisine, R. D. and Yamamura, H. 1., Brain Res., 136,578 (1977).
# as §4, §5, §6
# [6] = biological target: T3, dopamine D2 receptors (Rattus norvegicus, UniProt P61169); assay: Dopamine D2 binding test with [3H]spiroperidol (Table 1.A)
# T3 construct: from tissue; guinea pig by b443
# Description: as §2, §7, §4, §5, §6
# [7] = test system: cysteamine-induced ulcers; assay: Inhibition of cysteamine-induced gastroduodenal ulcers in rats; type: in vivo, rat (male Sprague Dawley); conditions: rat, 50% inhibition of ulceration, read-out: Cysteamine ulcer ED50
# From the text: as §1
# b) Cysteamine-induced ulcer
# The activity of the compounds of the invention with respect to the gastrointestinal tract was shown in rats by their capacity to inhibit gastroduodenal ulcers caused by administration of cysteamine. (Robert and al., Digestion, 1974, 11, 199-211).
# In practice, the study is carried out according to the method described by Selye, H. and Szabo, S., Nature, 1973, 244:458-459 on groups of male Sprague Dawley rats weighing 200 g on average, to which a solution of cysteamine hydrochloride is administered by subcutaneous injection on the basis of 400 mg/kg, […] the ulcerogenic agent. Eighteen hours later, the rats are sacrificed by elongation, and the stomach and duodenum are removed, rinsed with physiological solution and pinned onto a card. The presence of ulcers of the antropyloroduodenal region is looked for, and their area, expressed in mm^2, is evaluated by multiplying the two principal perpendicular axes of the lesion. Statistical analysis of the results is carried out using Student's test for the ulcerated areas in comparison with a control group. The results are presented in Table 2, and expressed as an ED50 of ulceration scores, which are the effective doses of product in (mg/kg) for a 50% inhibition of the cysteamine-induced ulcers.
# [8] = test system: phencyclidine (PCP) receptors; conditions: state of the art; cited from earlier work
# [9] = Stability remark on isolated product; type: physicochemical; conditions: free base, after Stage 3
# [10] = test system: dopaminergic (D2) receptors; conditions: state of the art; cited from earlier work
# [11] = test system: dopaminergic D2 receptors; conditions: state of the art; cited from earlier work
# [12] = state of the art; cited from earlier work
# [13] = test system: rats; conditions: state of the art; cited from earlier work
# T3 sequence (P61169 whole entry): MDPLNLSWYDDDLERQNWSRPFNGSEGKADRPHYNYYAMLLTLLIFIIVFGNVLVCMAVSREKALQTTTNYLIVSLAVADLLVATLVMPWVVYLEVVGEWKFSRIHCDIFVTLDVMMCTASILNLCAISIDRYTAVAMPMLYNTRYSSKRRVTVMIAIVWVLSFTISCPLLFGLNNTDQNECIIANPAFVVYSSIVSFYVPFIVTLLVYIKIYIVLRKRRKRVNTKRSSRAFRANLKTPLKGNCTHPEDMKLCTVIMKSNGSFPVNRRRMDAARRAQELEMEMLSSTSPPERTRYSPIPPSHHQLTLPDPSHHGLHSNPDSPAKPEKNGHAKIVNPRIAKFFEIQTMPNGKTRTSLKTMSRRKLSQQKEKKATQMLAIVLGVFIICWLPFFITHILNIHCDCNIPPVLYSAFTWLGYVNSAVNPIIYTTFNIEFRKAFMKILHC
# T2 sequence (Q60492 whole entry): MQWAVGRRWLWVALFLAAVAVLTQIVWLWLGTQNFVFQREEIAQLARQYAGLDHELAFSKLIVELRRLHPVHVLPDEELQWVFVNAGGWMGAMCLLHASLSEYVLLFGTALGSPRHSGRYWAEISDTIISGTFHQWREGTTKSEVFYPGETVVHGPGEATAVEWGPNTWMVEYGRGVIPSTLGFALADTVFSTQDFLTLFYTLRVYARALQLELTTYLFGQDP
# T1 sequence (Q9R0C9 whole entry): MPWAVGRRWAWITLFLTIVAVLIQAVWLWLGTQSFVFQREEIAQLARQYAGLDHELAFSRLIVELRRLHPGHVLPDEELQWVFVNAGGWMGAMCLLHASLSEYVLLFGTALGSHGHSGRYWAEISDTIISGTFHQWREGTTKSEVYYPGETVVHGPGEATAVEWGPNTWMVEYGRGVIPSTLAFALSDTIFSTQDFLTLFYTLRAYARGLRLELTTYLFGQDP
smiles,measurement,setting,value
"CN(CCC1COc2ccccc2C1=O)CC1CC1 (centres unmarked) [EXAMPLE 14, 3-[2-[(N-Cyclopropylmethyl-N-Methyl)Amino]-Ethyl]4-Chromanone Hydrchloride]",ED50,[1],3.5 mg/kg
same,IC50,[2],13.7 nM
"CN(CCC1CCCc2ccccc2C1=O)CC1CCCCC1 (centres unmarked) [EXAMPLE 11, 2-[2-[(N-Cyclohexylmethyl-N-Methyl)Amino]-Ethyl]-1-Benzosuberone Hydrochloride]",IC50,[2],6.6 nM
"CN(CCC1CCc2ccccc2C1=O)CC1CC1 (centres unmarked) [EXAMPLE 2, 2-[2-[(N-Cyclopropylmethyl-N-Methyl)Amino]Ethyl]-1-Oxo-1,2,3,4-Tetrahydronaphthalene Hydrochloride]",IC50,[3],> 10000 nM
same,IC50,[4],12 nM
same,IC50,[5],52 nM
same,ED50,[1],0.1 mg/kg
same,IC50,[6],> 10000 nM
same,IC50,[2],19.4 nM
"CN(CCC1COc2ccccc2C1=O)CC1CCCCC1 (centres unmarked) [EXAMPLE 15, 3-[2-[(N-cyclohexylmethyl-N-methyl)amino]ethyl]-4-chromanone]",IC50,[2],5.7 nM
"CN(CCC1CCc2ccccc2C1=O)CC1CCCCC1 (centres unmarked) [EXAMPLE 5, 2-[2-[(N-Cyclohexylmethyl-N-Methyl)Amino]-Ethyl]-1-Oxo-1,2,3,4-Tetrahydronaphthalene Hydrochloride]",IC50,[2],8.2 nM
"CN(CCC1CCc2ccccc2C12OCCO2)CC1CC1 (centres unmarked) [EXAMPLE 12, 2-[2-[(N-cyclopropylmethyl-N-methyl)amino]ethyl]-1-[spiro(cyclodioxyethyl)]-1,2,3,4-tetrahydro naphhtalene]",ED50,[7]; intraperitoneal route (ip),11.6 mg/kg
same,ED50,[1],1.7 mg/kg
same,IC50,[2],30.5 nM
"CN(CCC1Cc2ccccc2C1=O)CC1CC1 (centres unmarked) [EXAMPLE 1, 2-[2-[(N-Cyclopropylmethyl-N-Methyl)Amino]Ethyl]-1-Oxo-1,2-Dihydroindene Hydrochloride]",IC50,[2],10.7 nM
C[C@H]1[C@H]2Cc3ccc(O)cc3[C@]1(C)CCN2CC1CC1 [cyclazocine],affinity for phencyclidine (PCP) receptors,[8],strong affinity for phencyclidine (PCP) receptors
"O=C1c2ccccc2CCC1CCNC1CC1 (centres unmarked) [EXAMPLE 7, 2-[2-(N-Cyclopropylamino)Ethyl]-1-Oxo-1,2,3,4-Tetrahydronaphthalene]",stability,[9],unstable
"CN(CCC1CC1)CCC1CCc2ccccc2C1=O (centres unmarked) [EXAMPLE 4, 2-[2-[(N-Cyclopropylethyl-N-Methyl)Amino]Ethyl]-1-oxo-1,2,3,4-Tetrahydronaphthalene Hydrochloride]",ED50,[7]; oral route (po),15.6 mg/kg
same,IC50,[3],> 10000 nM
same,IC50,[4],2.83 nM
same,IC50,[5],56 nM
same,ED50,[1],1 mg/kg
same,IC50,[6],1910 nM
same,IC50,[2],10.6 nM
"C=CCN(C)CCC1CCc2ccccc2C1=O (centres unmarked) [EXAMPLE 17, 2-[2-[(N-Allyl-N-Methyl)Amino]Ethyl]-1-Oxo-1,2,3,4-Tetrahydronaphthalene Hydrochloride]",IC50,[2],13.3 nM
"CN(CCC1COc2ccc(F)cc2C1=O)CC1CCCCC1 (centres unmarked) [EXAMPLE 16, 3-[2-[(N-Cyclohexylmethyl-N-Methyl)Amino]-Ethyl]-6-Fluoro-4-Chromanone Hydrochloride]",IC50,[2],6.2 nM
"COc1ccc2c(c1)CCC(CCN(C)CC1CCCCC1)C2=O (centres unmarked) [EXAMPLE 6, 2-[2-[(N-Cyclohexylmethyl-N-Methyl)Amino]-Ethyl]6-Methoxy-1-oxo-1,2,3,4-Tetrahydronaphthalene Hydrochloride]",IC50,[2],8 nM
"C=CCN1CCC2(C)c3cc(O)ccc3CC1C2C (centres unmarked) [SKF 10047, N-allylnormetazocine]",affinity for phencyclidine (PCP) receptors,[8],strong affinity for phencyclidine (PCP) receptors
"CN(CCC1CCc2ccccc2C1=NO)CC1CCC1 (centres unmarked) [EXAMPLE 13, 2-[2-[(N-Cyclobutylmethyl-N-Methyl)Amino]Ethyl]-1-Hydroxyimino-1,2,3,4Tetrahydronaphthalene]",IC50,[2],7.7 nM
"O=C(CCCN1CCC(O)(c2ccc(Cl)cc2)CC1)c1ccc(F)cc1 [Haloperidol, 4-[4-(p-chlorophenyl)-4-hydroxypiperidino]-4'-fluorobutyrophenone]",affinity for dopaminergic (D2) receptors,[10],strong affinity for dopaminergic D2 receptors
same,extrapyramidal disorders,[11],can induce extrapyramidal disorders of the cataleptic type
"CN(CCC1CCc2ccccc2C1=O)CC1CCC1 (centres unmarked) [EXAMPLE 3, 2-[2-[(N-cyclobutylmethyl-N-methyl)amino]ethyl]-1-oxo-1,2,3,4-tetrahydronaphthalene]",ED50,[7]; intraperitoneal route (ip),5.7 mg/kg
same,ED50,[7]; oral route (po),8.6 mg/kg
same,IC50,[3],> 10000 nM
same,IC50,[4],5.24 nM
same,ED50,[1],0.9 mg/kg
same,IC50,[6],1170 nM
same,IC50,[2],11.1 nM
"Cc1ccccc1NC(=N)Nc1ccccc1C [DTG, 1,3-di-o-tolylguanidine]",crossing the blood-brain barrier,[12],difficulty in crossing the blood-brain barrier
same,symptoms in rats,[13],causes symptoms in rats similar to those of PCP
"CCCN(CCC1CCc2ccccc2C1=O)CC1CC1 (centres unmarked) [EXAMPLE 9, 2-[2-[(N-cyclopropylmethyl-N-propyl)amino]ethyl]-1-oxo-1,2,3,4-tetrahydronaphthalene]",IC50,[2],10.4 nM
"CCCN1CCC[C@H](c2cccc(O)c2)C1 [(+)-3-PPP, (+)-3-(3-hydroxyphenyl)-N-(1-propyl)piperidine]",affinity for dopaminergic (D2) receptors,[10],strong affinity for dopaminergic (D2) receptors
"CN(CCC1CCCc2ccccc2C1=O)CC1CC1 (centres unmarked) [EXAMPLE 10, 2-[2-[(N-Cyclopropylmethyl-N-Methyl)Amino]Ethyl]-1-Benzosuberone Hydrochloride]",ED50,[1],1.6 mg/kg
same,IC50,[2],5.7 nM
